Measurements published in article PMC2701352 (Biochemical pharmacology, 2008).
“Also recorded” adds a separate entry of the source.

What was measured:
hMC4R/TM5 hMC1R = test: cAMP production, hMC4R/TM5hMC1R chimera; settings: Fig. 4B, 4D
hMC4R/TM6 hMC1R = hMC4R/TM6 hMC1R (Homo sapiens, UniProt P32245+Q01726); test: cAMP production, hMC4R/TM6hMC1R chimera
hMC4R/TM3 hMC1R = hMC4R/TM3 hMC1R (Homo sapiens, UniProt P32245+Q01726); test: cAMP production, hMC4R/TM3hMC1R chimera
hMC4R WT = hMC4R WT (Homo sapiens, UniProt P32245); test: cAMP production, hMC4R WT in HEK-293 cells; format: cell-based
Sequence of hMC4R WT (P32245 whole entry): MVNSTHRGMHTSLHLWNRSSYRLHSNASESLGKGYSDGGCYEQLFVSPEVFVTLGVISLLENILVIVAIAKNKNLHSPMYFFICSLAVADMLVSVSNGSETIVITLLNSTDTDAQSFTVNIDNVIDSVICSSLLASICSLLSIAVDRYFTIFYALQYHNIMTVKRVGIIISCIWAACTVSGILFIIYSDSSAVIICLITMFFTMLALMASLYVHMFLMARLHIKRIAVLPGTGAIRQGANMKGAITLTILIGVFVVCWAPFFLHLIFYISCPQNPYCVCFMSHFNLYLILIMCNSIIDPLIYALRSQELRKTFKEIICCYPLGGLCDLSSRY

hMC1R WT = hMC1R WT (Homo sapiens, UniProt Q01726); test: cAMP production, hMC1R WT in HEK-293 cells; format: cell-based
Sequence of hMC1R WT (Q01726 whole entry): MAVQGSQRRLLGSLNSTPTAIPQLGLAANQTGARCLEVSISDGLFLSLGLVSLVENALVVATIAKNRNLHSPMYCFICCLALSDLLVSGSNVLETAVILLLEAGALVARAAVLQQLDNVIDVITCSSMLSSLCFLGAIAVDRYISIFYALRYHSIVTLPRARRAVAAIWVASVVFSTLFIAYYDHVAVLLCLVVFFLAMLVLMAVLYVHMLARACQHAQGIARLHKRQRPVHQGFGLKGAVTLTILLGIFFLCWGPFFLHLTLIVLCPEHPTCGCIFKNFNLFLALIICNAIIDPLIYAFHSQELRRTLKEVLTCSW

hMC4R/TM2 hMC1R = hMC4R/TM2 hMC1R (Homo sapiens, UniProt P32245, A89S/G98V/I102A/M91L/S85C/S99L/V88L/V95G); test: cAMP production, hMC4R/TM2hMC1R chimera; format: cell-based
Sequence of hMC4R/TM2 hMC1R (P32245 whole entry S85C/V88L/A89S/M91L/V95G/G98V/S99L/I102A): as the sequence (P32245 whole entry) above, with S85C, V88L, A89S, M91L, V95G, G98V, S99L, I102A counted along it

hMC4R/TM4 hMC1R = hMC4R/TM4 hMC1R (Homo sapiens, UniProt P32245+Q01726); test: cAMP production, hMC4R/TM4hMC1R chimera
Sequence of hMC4R/TM4 hMC1R (P32245 1-172 limits assumed, other chains not shown): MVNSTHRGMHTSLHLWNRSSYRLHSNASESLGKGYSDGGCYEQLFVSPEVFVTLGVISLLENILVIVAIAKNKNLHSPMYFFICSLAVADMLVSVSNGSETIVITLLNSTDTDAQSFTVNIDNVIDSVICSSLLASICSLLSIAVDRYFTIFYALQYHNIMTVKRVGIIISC
Sequence of hMC4R/TM4 hMC1R (P32245 188-332 limits assumed, other chains not shown): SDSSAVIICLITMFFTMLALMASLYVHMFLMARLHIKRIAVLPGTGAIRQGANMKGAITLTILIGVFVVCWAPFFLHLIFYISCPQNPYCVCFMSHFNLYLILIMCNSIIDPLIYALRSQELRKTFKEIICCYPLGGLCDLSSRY

Sequence of hMC4R/TM6 hMC1R (P32245 1-251 limits assumed, other chains not shown): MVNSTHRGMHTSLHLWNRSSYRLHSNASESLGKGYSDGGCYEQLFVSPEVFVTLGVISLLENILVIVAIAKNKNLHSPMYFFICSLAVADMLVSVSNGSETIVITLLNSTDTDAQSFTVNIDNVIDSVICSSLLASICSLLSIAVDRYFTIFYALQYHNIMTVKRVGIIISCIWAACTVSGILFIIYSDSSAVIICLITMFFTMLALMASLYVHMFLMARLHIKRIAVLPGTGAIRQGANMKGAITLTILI
Sequence of hMC4R/TM6 hMC1R (P32245 271-332 limits assumed, other chains not shown): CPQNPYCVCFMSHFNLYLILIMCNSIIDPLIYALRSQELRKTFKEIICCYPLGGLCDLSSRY
Sequence of hMC4R/TM3 hMC1R (P32245 1-121 limits assumed): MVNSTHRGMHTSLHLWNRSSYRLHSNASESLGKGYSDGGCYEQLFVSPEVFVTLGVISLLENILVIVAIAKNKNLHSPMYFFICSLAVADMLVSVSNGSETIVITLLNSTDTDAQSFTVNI
Sequence of hMC4R/TM3 hMC1R (Q01726 117-137 limits assumed): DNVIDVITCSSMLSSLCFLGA
Sequence of hMC4R/TM3 hMC1R (P32245 143-332 limits assumed): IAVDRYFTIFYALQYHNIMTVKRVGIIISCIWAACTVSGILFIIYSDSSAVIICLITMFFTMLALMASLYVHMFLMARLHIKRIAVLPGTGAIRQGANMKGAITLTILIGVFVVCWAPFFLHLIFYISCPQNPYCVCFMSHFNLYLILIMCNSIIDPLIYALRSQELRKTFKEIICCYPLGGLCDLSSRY

CCCC[C@H](NC(=O)[C@@H](NC(=O)[C@@H](N)Cc1ccc(O)cc1)C(C)C)C(=O)NCC(=O)N1CCC[C@H]1C(=O)N[C@H](Cc1ccccc1)C(=O)N[C@@H](CCCNC(=N)N)C(=O)N[C@@H](Cc1c[nH]c2ccccc12)C(=O)N[C@@H](CC(=O)O)C(=O)N[C@@H](CCCNC(=N)N)C(=O)N[C@@H](Cc1ccccc1)C(=O)NCC(N)=O [[DPhe^6]-γ-MSH, H-Tyr-Val-Nle-Gly-Pro-DPhe-Arg-Trp-Asp-Arg-Phe-Gly-NH2]
cAMP potency (in words) (hMC4R/TM5 hMC1R): did not significantly alter [DPhe^6]-γ-MSH potency
EC50 (hMC4R/TM6 hMC1R): 3.2 ± 0.3 nM
cAMP potency (in words) (hMC4R/TM6 hMC1R; Fig. 4B, 4D): did not significantly alter [DPhe^6]-γ-MSH potency
EC50 (hMC4R/TM3 hMC1R): 3.3 ± 0.5 nM
cAMP potency (in words) (hMC4R/TM3 hMC1R; Fig. 3B, 3D): did not significantly alter [DPhe^6]-γ-MSH potency
EC50 (hMC4R WT): 35 nM
cAMP production, potency and agonism (in words) (hMC4R WT; Fig. 2B, 2D): dose-dependently increased cAMP generation; also recorded: non selective agonist for the MC1R and MC4R
EC50 (hMC1R WT): 2.3 ± 0.5 nM
cAMP production, potency and agonism (in words) (hMC1R WT; Fig. 2B, 2D): dose-dependently increased cAMP generation; also recorded: non selective agonist for the MC1R and MC4R
EC50 (hMC4R/TM2 hMC1R): 2.9 ± 0.3 nM
cAMP potency (in words) (hMC4R/TM2 hMC1R; Fig. 3B, 3D): did not significantly alter [DPhe^6]-γ-MSH potency
EC50 (hMC4R/TM4 hMC1R): 3.1 ± 0.3 nM
cAMP potency (in words) (hMC4R/TM4 hMC1R; Figs. 3 and 4): did not significantly alter [DPhe^6]-γ-MSH potency
